Results published in patent US11198761B2, “Biodegradable polyionenes” (AGENCY FOR SCIENCE, TECHNOLOGY AND RESEARCH, priority 2017, dated 2021).

Columns and labels:
[1] = test system: rat red blood cells (rRBCs); experiment: Hemolysis assay; format: cell-based; conditions: Gemini-surfactant series S; 1 hour, 37° C.
Protocol: Freshly obtained rat red blood cells (rRBC) from the Animal Handling Unit of Biomedical Research Center (Singapore) was used to test the hemolytic activity of the polymers and Gemini-surfactants. The rRBC was diluted to 4% v/v with phosphate-buffered saline (PBS) and added to an equal volume of 0.2% v/v Triton-X solution. A microplate reader was used to measure the optical density (O.D.) reading to make sure the value is between 0.5 and 0.6. An equal volume of different polymer or Gemini-surfactant concentrations was added to the diluted blood and incubated for 1 hour at 37° C. The samples were centrifuged at 1000 g at 4° C. for 5 minutes and 100 μL of the supernatant was collected and transferred to a 96-well tissue culture plate. There were 4 replicates for each concentration. Haemoglobin release was measured using the microplate reader at 576 nm. rRBCs treated with PBS were used as the […] control, while those treated with 0.2% v/v Triton-X was used as the […] control.
Percentage of hemolysis was calculated as follows: Hemolysis (%)═[(O.D.576 nm of the treated sample−O.D.576 nm of negative control)/(O.D.576 nm of positive control−O.D.576 nm of negative control)]×100%
HC50 was taken as the polymer concentration at which the polymer causes 50% hemolysis.

[2] = test system: P. aeruginosa (ATCC No. 9027); experiment: MIC, broth microdilution; format: cell-based, Pseudomonas aeruginosa; conditions: Gemini-surfactant series S; 18 hours, 37° C.
Protocol: (§1) Bacterial and fungal samples were inoculated according to ATCC's requirement. Briefly, bacteria and fungi were grown in Mueller Hinton Broth (MHB) at 37° C. and room temperature, respectively overnight to allow the microbes to enter the log growth phase with constant 100 rpm shaking. Minimum inhibitory concentration (MIC) of the polymers was determined using the broth microdilution method. 100 μL of 20% v/v water-containing broth with various polymer or Gemini-surfactant concentrations was first added into each well of a 96-well tissue culture plate. The inoculated overnight microbe solution was first diluted to an optical density (O.D.) reading of 0.07 using a microplate reader (TECAN, Switzerland). This will correspond to 3×10^8 CFU/mL based on the McFarland 1 standard solution (CFU=colony forming units). The microbe solution was further diluted 1000 times to achieve a final 3×10^5 CFU/mL. To each well, an equal volume of diluted microbes solution was added and incubated at 37° C. for 18 hours for bacteria samples and at room temperature for 42 hours for fungi samples. There were 6 replicates for each concentration tested, with negative control being microbes added into broth containing 20% v/v deionized water. MIC was taken as the lowest concentration at which there was no observable microbe growth when measured by the microplate reader.

[3] = test system: S. aureus (ATCC No. 6538); experiment: MIC, broth microdilution; format: cell-based, Staphylococcus aureus; conditions: Gemini-surfactant series S; 18 hours, 37° C.
Protocol: as §1

[4] = test system: C. albicans (ATCC No 10231); experiment: MIC, broth microdilution; format: cell-based, Candida albicans; conditions: Gemini-surfactant series S; 42 hours, room temperature
Protocol: as §1

E. coli (ATCC No. 25922) = experiment: MIC, broth microdilution; format: cell-based, Escherichia coli; conditions: Gemini-surfactant series S; 18 hours, 37° C.
Protocol: as §1

SMILES	Hemolysis, HC50 [1]	MIC PA [2] [ppm]	MIC SA [3] [ppm]	MIC CA [4] [ppm]	MIC EC (E. coli (ATCC No. 25922)) [ppm]
CCCCCCCC[N+](C)(C)Cc1ccc(C(=O)NCCNC(=O)c2ccc(C[N+](C)(C)CCCCCCCC)cc2)cc1.[Cl-].[Cl-] [S-1f]	>2000 ppm	>500	31	125	250
CCCCCCCCCCCC[N+](C)(C)Cc1ccc(C(=O)NCCNC(=O)c2ccc(C[N+](C)(C)CCCCCCCCCCCC)cc2)cc1.[Cl-].[Cl-] [S-1g]	125-250 ppm	16	1	2	2
CCCCCCCCCCCC[N+](C)(C)Cc1ccc(C(=O)NCCNC(=O)c2ccc(C[N+](C)(C)CCCCCCCCCCCC)cc2)cc1.[Cl-].[Cl-] [S-1h]	125-250 ppm	31	16	2	8
CCCCCCCC[N+](C)(C)Cc1ccc(C(=O)NCCCCCCNC(=O)c2ccc(C[N+](C)(C)CCCCCCCC)cc2)cc1.[Cl-].[Cl-] [S-3f]	500-1000 ppm	500	4	8	16
CCCCCCCCCCCC[N+](C)(C)Cc1ccc(C(=O)NCCCCCCNC(=O)c2ccc(C[N+](C)(C)CCCCCCCCCCCC)cc2)cc1.[Cl-].[Cl-] [S-3h]	125-250 ppm	16	4	2	16
CCCCCCCC[N+](C)(C)Cc1ccc(C(=O)NCc2cccc(CNC(=O)c3ccc(C[N+](C)(C)CCCCCCCC)cc3)c2)cc1.[Cl-].[Cl-] [S-4f]	250-500 ppm	250	2	125	8
CCCCCCCCCC[N+](C)(C)Cc1ccc(C(=O)NCc2cccc(CNC(=O)c3ccc(C[N+](C)(C)CCCCCCCCCC)cc3)c2)cc1.[Cl-].[Cl-] [S-4g]	63-125 ppm	8	1	1	1
CCCCCCCCCCCC[N+](C)(C)Cc1ccc(C(=O)NCc2cccc(CNC(=O)c3ccc(C[N+](C)(C)CCCCCCCCCCCC)cc3)c2)cc1.[Cl-].[Cl-] [S-4h]	63-125 ppm	31	8	2	8
C=CC[N+](C)(C)Cc1ccc(C(=O)NCCOCCOCCNC(=O)c2ccc(C[N+](C)(C)CC=C)cc2)cc1.[Cl-].[Cl-] [S-5a]	>2000 ppm	>500	>500	>500	>500
C=C(C)C(=O)OCC[N+](C)(C)Cc1ccc(C(=O)NCCOCCOCCNC(=O)c2ccc(C[N+](C)(C)CCOC(=O)C(=C)C)cc2)cc1.[Cl-].[Cl-] [S-5b]	>2000 ppm	>500	>500	>500	>500
C[N+](C)(Cc1ccc(C(=O)NCCOCCOCCNC(=O)c2ccc(C[N+](C)(C)C3CCCCC3)cc2)cc1)C1CCCCC1.[Cl-].[Cl-] [S-5c]	>2000 ppm	>500	>500	>500	>500
C[N+](C)(Cc1ccccc1)Cc1ccc(C(=O)NCCOCCOCCNC(=O)c2ccc(C[N+](C)(C)Cc3ccccc3)cc2)cc1.[Cl-].[Cl-] [S-5d]	>2000 ppm	>500	>500	>500	>500
CCCC[N+](C)(C)Cc1ccc(C(=O)NCCOCCOCCNC(=O)c2ccc(C[N+](C)(C)CCCC)cc2)cc1.[Cl-].[Cl-] [S-5e]	>2000 ppm	>500	>500	>500	>500
CCCCCCCC[N+](C)(C)Cc1ccc(C(=O)NCCOCCOCCNC(=O)c2ccc(C[N+](C)(C)CCCCCCCC)cc2)cc1.[Cl-].[Cl-] [S-5f]	>2000 ppm	>500	31	125	250
CCCCCCCCCC[N+](C)(C)Cc1ccc(C(=O)NCCOCCOCCNC(=O)c2ccc(C[N+](C)(C)CCCCCCCCCC)cc2)cc1.[Cl-].[Cl-] [S-5g]	125-250 ppm	63	2	2	4
CCCCCCCCCCCC[N+](C)(C)Cc1ccc(C(=O)NCCOCCOCCNC(=O)c2ccc(C[N+](C)(C)CCCCCCCCCCCC)cc2)cc1.[Cl-].[Cl-] [S-5h]	16-31 ppm	16	2	1	4
CCCCCCCC[N+](C)(C)Cc1ccc(C(=O)NCCCOCCOCCOCCCNC(=O)c2ccc(C[N+](C)(C)CCCCCCCC)cc2)cc1.[Cl-].[Cl-] [S-6f]	>2000 ppm	>500	16	16	125
CCCCCCCCCC[N+](C)(C)Cc1ccc(C(=O)NCCCOCCOCCOCCCNC(=O)c2ccc(C[N+](C)(C)CCCCCCCCCC)cc2)cc1.[Cl-].[Cl-] [S-6g]	250-500 ppm	63	2	4	4
CCCCCCCCCCCC[N+](C)(C)Cc1ccc(C(=O)NCCCOCCOCCOCCCNC(=O)c2ccc(C[N+](C)(C)CCCCCCCCCCCC)cc2)cc1.[Cl-].[Cl-] [S-6h]	31-63 ppm	8	1	4	2
CCCCCCCCCC[N+](C)(C)Cc1ccc(C(=O)OCCCOC(=O)c2ccc(C[N+](C)(C)CCCCCCCCCC)cc2)cc1.[Cl-].[Cl-] [S-7g]	63-125 ppm	8	1	1	1
CCCCCCCCCC[N+](C)(C)Cc1ccc(C(=O)OCCCCCCOC(=O)c2ccc(C[N+](C)(C)CCCCCCCCCC)cc2)cc1.[Cl-].[Cl-] [S-9g]	125-250 ppm	8	1	1	2
